Measurements reported in patent US4758586A, “Indolyl compounds and hyposensitivity use thereof” (USV Pharmaceutical Corp., priority 1986, dated 1988).

Columns and labels:
[1] = tested on: Phospholipase C (PLC); experiment: In vitro assay for inhibitors of Phospholipase C (PLC) from rat platelets; format: biochemical; conditions: read-out: PLC, I50
From the text: A. Protocol For In Vitro Assay For Inhibitors Of Phospholipase C (PLC)
The PLC employed in this screen is obtained by aggregation of purified rat platelets in the presence of CaCl2 and ADP. In the enzyme assay phosphatidylinositol having ^3 H -labeled arachidonate residues at R2 is employed as substrate. PLC acts by cleaving the phosphate ester bond yielding diglyceride as follows: [drawing 18]
Following completion of the reaction, the assay medium is acidified and extracted with hexane which takes up unreacted substrate and diglyceride. The hexane extract is passed over a short silica gel column which retains 99% of the phosphatidylinositol. The ^3 H-labeled diglyceride is not retained […]. The diglyceride is conveniently quantitated by liquid scintillation spectrometry.
The compounds were tested at 300 u in a buffer containing 0.06 mM unlabeled phosphatidylcholine (PC), 20-30,000 cpm of (CPC), 150 mM NaCl, 5 mM CaCl2 and 50 mM tris(hydroxymethyl)methylaminopropanesulfonic acid buffer, adjusted to pH 9.0 with 1N NaOH. The temperature of the buffer was maintained at a temperature of 37° C. The reaction was initiated by addition of the enzyme and it was terminated 10 minutes later by addition of 1 ml of 1N HCl.
Following acidification, the samples were extracted with 2 ml of isopropyl alcohol and 2 ml of hexane, vortexed and allowed to stand until the phases separate. […] and some unreacted substrate were taken up in the isopropanol-saturated hexane. The hexane phase of the extraction mixture was transferred to a short silica gel column which retains unreacted phosphatidylinositol, but not the 3H-diglyceride. The column effluent was collected directly in scintillation vials. The columns were washed once with additional 2 ml of hexane. The radiolabelled diglycerides were quantitated by liquid scintillation.

[2] = biological target: cyclooxygenase; experiment: Production of TXB2 and PGF2 α in rat peritoneal leukocyte homogenate (cyclooxygenase); format: biochemical; conditions: read-out: Cyclox, I50
From the text: Another assay has been developed to test the ability of the invented compounds on the activity of cyclooxygenase, which is one of the enzymes metabolizing arachidonic acids. By-products of arachidonic acid metabolism include thromboxanes, a type of which is designated as TXB2, and protoglandins, a class of which is known as PGF2 α. As indicated, supra, these by-products promote inflammatory response to a host of offending stimuli. The following protocol describes a procedure for testing the inhibitory effect on the production of TXB2 and PGF2 α.
Protocol for Detecting the Production of TXB2 and PGF2 α.
A suspension of glycogen elicited rat peritoneal leukocyte-homogenate in buffer is incubated with (^14 C)-arachidonic acid (AA), epinephrine and glutathione for 30 minutes at 37°. The reaction is quenched with 2M citric acid, and a trace amount of (^3 H)-TXB2 and an excess of unlabeled TXB2 and PGF2 α are added to each tube. […] Strips containing the spots are cut out, placed in scintillation vials and the radioactive content is quantitated in a liquid scintillation spectrometer.
After adjusting for the extraction efficiency, the amount (pmole) of (^14 C)-TXB2 and PGF2 α in each of the tubes is calculated. […] The ability of the test compounds to modulate the activity of this enzyme is determined by a decrease or increase in the net amount of TXB2 and PGF2 α produced.

[3] = tested on: leukotriene C4 -induced contraction of guinea pig peripheral strips; experiment: SRS-A antagonists (SALTI): leukotriene C4-induced contraction of guinea pig peripheral lung strips; conditions: Cavia porcellus; 0.2 μM leukotriene C4-induced contraction; read-out: SALTI, I50 μM
Method: Protocol for SRS-A (Slow-reacting Substance of Anaphylaxis Antagonists (SALTI)
Peripheral strips of guinea pig lungs are prepared and hung in tissue baths (Metro #ME-5505, 10 ml) according to the published procedure (Pro. Nat'l. Acad. Sci., U.S.A. Volume 77, pp. 4354-4358, 1980). The strips are thoroughly rinsed in Assay Buffer and then connected with surgical silk thread to the support rods from the tissue baths. The rods are adjusted in the baths and the strips connected to the pressure transducers (Grass FT 103 or Gould UC-3). The tissue baths are aerated with 95% oxygen 5% carbon dioxide and maintained at 37° C. The Assay Buffer has been made as follows: For each liter of buffer the following are added to approximately 800 ml of water distilled in glass--6.87 g. NaCl, 0.4 g. KCl, […]. NaHCO3, 0.14 g. NaH2 PO4.H2 O, 0.21 g. MgSO4.7H2 O, and 2.0 g. D-glucose. Then a solution of 0.368 g. CaCl2.2H2 O in 100 ml glass-distilled water is slowly added to the buffer. Sufficient water is added to adjust the volume to one liter, and the solution is aerated with 95% oxygen--5% carbon dioxide. Usually 10 liters of buffer are used for an experiment with 4 tissues.
After the tissues have been repeatedly washed and allowed to equilibrate in the tissue bath, they are challenged with 1 μM histamine. After maximum contractions have been obtained, the tissues are washed, and allowed to relax back to baseline tension. This histamine challenge procedure is repeated at least 1 to 2 more times to obtain a repeatable control response. The average response to 1 μM histamine for each tissue is used to normalize all other challenges.
Responses of each tissue to a predetermined concentration of leukotriene are then obtained. Usually test compounds are examined initially at 30 μM on resting tension of the tissues without any added agonist or antagonist to determine if the compound has any possible intrinsic activity. The tissues are washed, and the test compound is added again. Leukotriene is added after the desired pre-incubation time. The intrinsic activity of the compounds, and their effect on leukotriene-induced contractions are then recorded.
The concentration required for 50% inhibition of 0.2 μM leukotriene C4 -induced contraction of guinea pig peripheral strips for representative compounds of the present invention is shown in Table 3.

For CCC(=CC=Cc1cn(Cc2ccccc2)c2ccccc12)C(=O)O [Example 9, 5-(1-Benzylindol-3-yl)-2-Ethyl-2,4-Pentadienoic Acid], the IC50 [1] was 37 µM, the IC50 [2] was 15 µM and the IC50 [3] was 18 µM.
